Experimental data as given in patent US20250144050A1, “AMINOTHIOL-CONJUGATES, COMPOSITIONS, AND METHODS OF USE THEREOF” (THE BURLINGTON HC RESEARCH GROUP, INC., priority 2021, published 2025).
Read-outs that look alike come from different tables or passages of the source.

Tests used:
[1] = tested on: human cancer cell lines; assay: CyQUANT cell viability assay, 48-hour exposure, panel averages; details: for fold greater cytostatic effect than amifostine: HCC38, PC3, SKOV3, TOV21G (amifostine GI50 <100 μM); for fold more potent than amifostine as a cytostatic agent, averaging: averages of dose-response metrics across panel
Method: (§1) After drug treatments, fluorescence readings from 96-well plates were obtained using the CyQUANT dye and compared to standard curves for each cell line to determine cell viability. […] Trypan blue exclusion was used to estimate cell numbers in a few pilot experiments and was thereafter applied to confirm cell death.
(§2) A series of experiments was conducted to assess the relative efficacy of 4SP65, 1LP65, and amifostine as single agents in the same human cancer cell lines. First, the effectiveness of 4SP65 was tested against 15 cancer cell lines derived from seven tissues. […] The effectiveness of 0 to ≤500 μM amifostine was tested in sets of cancer cell lines reported to have either medium, high, or no expression of alkaline phosphatase.
(§3) Trans. R Soc. Lond. […] Using cell numbers based on fluorescence measurements and standard curves [time zero, (Tz), control growth, (C), and test growth in the presence of drug at five or more concentration levels (Ti)], the percentage growth was calculated at each drug concentration level. The percentage of growth inhibition was calculated as follows:
(§4) The LC50/99 was calculated using Equation 2=−50 and Eq. 2=−99, respectively. […] For NHMECs, the relationships between drug exposure levels and fluorescence units were used to define dose-response metrics. The selectivity index (SI) values for individual drug treatments were calculated as IC50 levels in NHMECs divided by the IC50 values in cancer cell lines.

[2] = tested on: MDA-MB-231 cells; assay: CyQUANT cell viability assay, 48-hour exposure; format: cell-based, human
Method: as §1, §2, §3, §4

[3] = tested on: TOV21G ovarian cancer cells; format: cell-based
Method: (§6) Trypan Blue exclusion was applied as a complementary confirmation probe for cell death.
(§7) Statistical comparisons of differences in individual dose-response metrics between individual/paired drug treatments and various cell lines were conducted using the Student's t-test, with P-values <0.05 considered significant.
(§8) Relative cell growth inhibition values for differing levels each drug alone and in combination were input into SynergyFinder to generated dose-response curves for each drug alone, to produce a dose-response matrix, to visualize the distribution of areas of differing degrees of synergism in a 2-dimension heatmap and 3-dimension volcano plot, and to calculate average and maximum synergy scores in selected human cancer cell lines. […] Synergy scores <10 means that the interaction between two drugs was likely to be antagonistic; scores from −10 to 10 means the interaction between two drugs was likely to be additive; and scores >10 means the interaction between two drugs was likely to be synergistic.

[4] = tested on: HPM3 cells; assay: Dose-response metrics in immortalized, non-tumorigenic cells; format: cell-based
Method: (§5) To determine potential cytostatic or cytocidal effects of BRG prodrugs in immortalized, non-tumorigenic cells, Vero, HEK-293t, LP9, and HPM3 cells were exposed to 4SP65 while only Vero cells also were treated with 1LP65. […] Comparisons across other dose-response metrics could not be made because such levels of effects were not induced in NHMECs exposed to 4SP65. […] Since cytostatic and cytolytic effects at the TGI and LC50/99 levels were induced in Vero cells exposed to 1LP65 but not in NHMECs, there is a significant difference in the effects of 1LP65 in Vero cells compared to NHMECs, but p values based upon t-test evaluations cannot be defined due to lack of numerical data.

[5] = Storage stability; format: physicochemical
Method: The solubility of 4SP65 was tested in de-ionized water, PBS, DMSO, and RPMI or DMEM base medium with and without FBS. […] The difference in the starting weight of drug placed into solvent minus the weight of the residue after drying on a vacuum pump was considered to represent the amount of drug that went into solution. The amount of drug that was dissolved at a given time ranged from 40 to 61%, averaging 49.7±8.1% (SD). The weight of the 4SP65 in solution was then used for diluting the drug to concentrations of 200 or 400 μM in supplemented RPMI or DMEM/F12 medium for routine treatment of cells. The dried residue was not used in the in vitro drug efficacy studies. […] However, unintended topical entanglements between polymer chains of multi-arm PEG-thiol molecules without disulfide formation have been reported (Tang and Olsen, “Controlling Topological Entanglement in Engineered Protein Hydrogels with a Variety of Thiol Coupling Chemistries,” Front. Chem. 2:23 (2014), which is hereby incorporated by reference in its entirety). Aliquots of 4SP65 dissolved in FBS enriched medium has remained stable for >6 months while remnants of the original viscous polymer have maintained stability without any apparent loss of activity when stored for 60 months at −20° C.
The boc deprotected aminothiol conjugated to m-PEG6-thiol was dried on a vacuum pump overnight to yield a viscous oil that on analysis gave rise to spectra corresponding to 1LP65 as a di-trifluroacetic acid salt at a MW of 672.87 Da (FIG. 15), or a MW of 483 once dissolved in solution. As such, 1LP65 is soluble 100% DMSO or aqueous solution. However, the bulk of the product was dissolved at 40 mM in DMSO and stored in aliquots at −80° C. for future use once by further dilution in DMSO and then final dilution in medium for treatment of normal human epithelium and human cancer cell lines at working solutions of 4 mM or 400 μM drug. […]

[6] = tested on: H1975 cells
Method: as §6, §7, §8

[7] = Dose-response metrics in immortalized, non-tumorigenic cells; format: cell-based; details: African green monkey, Vero cells (immortalized, non-tumorigenic); read-out: LC50 (the source's name)
Method: as §5

[8] = 48-hour, 15 cancer cell lines (4SP65), 11 (1LP65)

For 4-star PEG-S-S-WR1065 [4SP65], the “fold greater potency than predicted by ratio of four vs one WR1065/molecule” value ([1]; 4SP65 versus 1LP65) was ~2.5 fold, the “LC99, average across cell lines” value [1, 8] was 11.2 µM and the “LC99, range” value [1, 8] was 3.0 to 21.1 µM. The “TGI, average across cell lines” value [1, 8] was 6.8 ± 1.1 µM, the “TGI, range” value [1, 8] was 2.0 to 16.3 µM and the “fold greater cytostatic effect than amifostine” value [1] was 38 fold. For the same compound, the “fold more potent than 1LP65, averaging” value ([1]; across dose-response metrics) was 10.4 fold, the “fold more potent than amifostine as a cytostatic agent, averaging” value [1] was 55 fold and the GI50 ([1]; read-out: GI50, average across cell lines, 48-hour, 15 cancer cell lines (4SP65), 11 (1LP65)) was 4.1 ± 0.8 µM. The GI50 ([1]; read-out: average GI50, HCC38, PC3, SKOV3, and TOV21G) was 1.7 µM, the selectivity index ([2]; IC50 of 76 in most sensitive NHMEC strain / IC50 in MDA-MB-231) was > 16 and the CC50 [3] was 2.7 ± 0.1 µM. The “LC99, amount of each drug in combination” value ([3]; TOV21G, 4SP65-cisplatin combined, 48 h) was 0.95 µM, the GI50 ([3]; TOV21G, each drug alone, 48 h) was 0.93 ± 0.37 µM and the IC50 ([3]; TOV21G, each drug alone, 48 h) was 1.2 ± 0.3 µM. For the same compound, the LC99 ([3]; TOV21G, each drug alone, 48 h) was 3.0 µM, the TGI ([3]; TOV21G, each drug alone, 48 h) was 2.0 ± 0.4 µM and the GI50 [4] was ~10 µM. The time remained stable ([5]; dissolved in FBS enriched medium) was > 6 months, the “time stability maintained without apparent loss of activity” value ([5]; original viscous polymer stored at −20° C.) was 60 months and the CC50 [6] was 7.2 ± 1.4 µM. The GI50 ([6]; H1975, each drug alone, 48 h) was 3.2 ± 1.1 µM, the IC50 ([6]; H1975, each drug alone, 48 h) was 3.5 ± 0.9 µM and the LC99 ([6]; H1975, each drug alone, 48 h) was 8.9 ± 1.6 µM. The TGI ([6]; H1975, each drug alone, 48 h) was 5.5 ± 1.4 µM.

For `COCCOCCOCCOCCOCCOCCSSCCNCCCN` [1LP65, m-PEG6-S-S-WR1065], the “LC99, average across cell lines” value [1, 8] was 126 ± 15.8 µM, the “LC99, range” value [1, 8] was 83.5 to 234 µM and the “TGI, average across cell lines” value [1, 8] was 69.3 ± 10.3 µM. For the same compound, the “TGI, range” value [1, 8] was 32.7 to 126 µM, the “fold greater cytostatic effect than amifostine” value [1] was 2.1 fold and the GI50 ([1]; Homo sapiens, 48 h, read-out: GI50, average across cell lines, 48-hour, 15 cancer cell lines (4SP65), 11 (1LP65)) was 41.2 ± 5.4 µM. For the same compound, the GI50 ([1]; Homo sapiens, 48 h, read-out: GI50, range for individual cell lines, 48-hour, 15 cancer cell lines (4SP65), 11 (1LP65)) was 21.3 to 77.7 µM, the CC50 ([1]; Homo sapiens, 48 h, read-out: LC50, average across cell lines) was 94.6 ± 12.8 µM and the CC50 ([1]; Homo sapiens, 48 h, read-out: LC50, range) was 51.3 to 157 µM. For the same compound, the GI50 ([1]; Homo sapiens, read-out: average GI50, HCC38, PC3, SKOV3, and TOV21G) was 30.4 µM, the “fold more potent than amifostine as a cytostatic agent, averaging” value [1] was 5.9 fold and the GI50 ([2]; Homo sapiens, MDA-MB-231 cells, 48 hours) was 41.8 µM. The CC50 [7] was 129 ± 3.4 µM and the time stability maintained ([5]; frozen aliquots, 40 mM in DMSO at −80° C.) was “six”.
